Reference: ChEMBL document CHEMBL2434912, “Microwave accelerated synthesis of isoxazole hydrazide inhibitors of the system xc- transporter: Initial homology model” (Bioorg Med Chem Lett, 2013)

Molecular target: T1, Cystine/glutamate transporter (Homo sapiens) (UniProt Q9UPY5)
T1 sequence (whole entry): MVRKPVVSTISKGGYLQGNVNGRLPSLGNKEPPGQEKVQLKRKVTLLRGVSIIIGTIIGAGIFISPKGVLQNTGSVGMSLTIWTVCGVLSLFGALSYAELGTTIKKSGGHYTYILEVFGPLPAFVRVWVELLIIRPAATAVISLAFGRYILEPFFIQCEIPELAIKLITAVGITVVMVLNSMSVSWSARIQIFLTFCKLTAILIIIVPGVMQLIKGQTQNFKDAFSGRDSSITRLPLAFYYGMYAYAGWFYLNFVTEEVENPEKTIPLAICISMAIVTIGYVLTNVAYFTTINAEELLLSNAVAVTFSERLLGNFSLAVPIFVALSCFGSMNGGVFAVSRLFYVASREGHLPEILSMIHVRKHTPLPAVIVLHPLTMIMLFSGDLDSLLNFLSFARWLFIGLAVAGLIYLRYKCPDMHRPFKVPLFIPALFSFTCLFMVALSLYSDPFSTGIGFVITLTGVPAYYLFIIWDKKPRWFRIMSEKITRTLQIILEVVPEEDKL
Experiment: Inhibition of system xc-transporter-mediated [3H]-L-glutamate uptake in human SNB19 cells at 500 uM after 5 mins by liquid scintillation counting analysis relative to control
Assay type: cell-based
Conditions: SNB-19

inhibition [%] | SMILES
68 | COc1ccc(C(=O)N/N=C(\C)c2c(C(=O)O)noc2C)cc1
83 | C/C(=N\NC(=O)c1ccccc1)c1c(C(=O)O)noc1C
58 | C/C(=N\NC(=O)c1ccc(F)cc1F)c1c(C(=O)O)noc1C
52 | C/C(=N\NC(=O)c1ccccc1O)c1c(C(=O)O)noc1C
68 | C/C(=N\NC(=O)c1cccc2ccccc12)c1c(C(=O)O)noc1C
90 | C/C(=N\NC(=O)c1cc(C(F)(F)F)cc(C(F)(F)F)c1)c1c(C(=O)O)noc1C
